In patent publication US7501430B2 (ArQule, Inc., priority 2006, dated 2009) one finds IC50 data, which are given here for five compounds.

One may read the IC50 as the point on the concentration scale where inhibition reaches its midpoint.

Assay [1] relates to Colo-205 human colon cancer cell line (B-RAF V600E). The experiment in a line: MTS cell growth assay, Colo-205. Format: cell-based. The following applies: Colo205 cells, 72 hours. From the text: (§1) Compounds of the present invention have been tested for activity against a variety of cancer cell lines. The ability of compounds to inhibit cell growth in this assay is correlated with the reduction of dehydrogenase enzyme activity found in metabolically active cells.
(§2) Materials: A375 (a human melanoma cell line that harbors the B-RAF mutation V600E), Colo-205 (a human colon cancer cell line that harbors the B-RAF mutation V600E), DLD1 (a human colon cancer cell line that harbors the K-ras mutation G13D), SK-MEL-2 (a human melanoma cell line that harbors the N-ras mutation Q61R), SK-MEL-28 (a human melanoma cell line that harbors the B-RAF mutation V600E), and SW480 (a human colon cancer cell line that harbors the K-ras mutation G12V) cells from ATCC were maintained at 37° C., 5% CO2 in DMEM media supplemented with 10% fetal bovine serum, penicillin/streptomycin and fungizone (Invitrogen). NCM460 (Incell), a normal colon epithelial cell line, and human mammary epithelial cells (Cambrex) were maintained at 37° C., 5% CO2 in DMEM and HEBM media (Cambrex), respectively.
(§3) Methods: Test compounds were dissolved and diluted to 300× in DMSO then diluted 1:40 in DMEM. Cells were seeded into 96-well tissue culture plates at 2-5×10^3 per well and cultured at 37° C. for 24 h. Cells were incubated with test compounds for 72 hours followed by incubation with tetrazolium compound (3-(4,5-dimethylthiazol-2-yl)-5-(3-carboxymethoxyphenyl)-2-(4-sulfophenyl)-2H-tetrazolium, inner salt; MTS) and the electron coupling reagent, phenazine methosulfate (PMS) for 4 hr. […] The measurement of the absorbance of the formazan was assessed using an ENVISION™ (Perkin Elmer) microplate reader at 492 nm. The calculated IC50 value is the concentration of the test compound that causes a 50% decrease in the absorbance.

For assay [2], the system named is SK-MEL-2 human melanoma cell line (N-ras Q61R). Briefly: MTS cell growth assay, SK-MEL-2. It counts as cell-based. The following applies: SKMEL2 cells, 72 hours, read-out: IC50 SKMEL2 NRAS (Q61R).
Text: as §1, §2, §3
For orientation: Tetrazolium dyes change colour on reduction, which living cells bring about.

The subject of assay [3] is DLD1 human colon cancer cell line (K-ras G13D). The experiment in a line: MTS cell growth assay, DLD1. It counts as cell-based. The note with it: DLD-1, DLD1 cells, 72 hours, read-out: IC50 DLD1 KRAS (G13D).
Text: as §1, §2, §3

In assay [4] the test system is SK-MEL-28 human melanoma cell line (B-RAF V600E). The experiment in a line: MTS cell growth assay, SK-MEL-28. It counts as cell-based. The note with it: SKMEL28 cells, 72 hours.
Text: as §1, §2, §3

The test system of assay [5] is SW480 human colon cancer cell line (K-ras G12V). The experiment in a line: MTS cell growth assay, SW480. Format: cell-based. The following applies: SW480 cells, 72 hours, read-out: IC50 SW480 KRAS (G12V).
Text: as §1, §2, §3

The subject of assay [6] is A375 human melanoma cell line (B-RAF V600E). Briefly: MTS cell growth assay, A375. It counts as cell-based. The note with it: A-375, A375 cells, 72 hours.
Text: as §1, §2, §3

The target of a further assay is T1, mutant B-RAF (Homo sapiens, UniProt P15056, V600E).
T1 construct: purchased Upstate (Charlottesville, Va.)
T1 sequence (P15056 whole entry V600E): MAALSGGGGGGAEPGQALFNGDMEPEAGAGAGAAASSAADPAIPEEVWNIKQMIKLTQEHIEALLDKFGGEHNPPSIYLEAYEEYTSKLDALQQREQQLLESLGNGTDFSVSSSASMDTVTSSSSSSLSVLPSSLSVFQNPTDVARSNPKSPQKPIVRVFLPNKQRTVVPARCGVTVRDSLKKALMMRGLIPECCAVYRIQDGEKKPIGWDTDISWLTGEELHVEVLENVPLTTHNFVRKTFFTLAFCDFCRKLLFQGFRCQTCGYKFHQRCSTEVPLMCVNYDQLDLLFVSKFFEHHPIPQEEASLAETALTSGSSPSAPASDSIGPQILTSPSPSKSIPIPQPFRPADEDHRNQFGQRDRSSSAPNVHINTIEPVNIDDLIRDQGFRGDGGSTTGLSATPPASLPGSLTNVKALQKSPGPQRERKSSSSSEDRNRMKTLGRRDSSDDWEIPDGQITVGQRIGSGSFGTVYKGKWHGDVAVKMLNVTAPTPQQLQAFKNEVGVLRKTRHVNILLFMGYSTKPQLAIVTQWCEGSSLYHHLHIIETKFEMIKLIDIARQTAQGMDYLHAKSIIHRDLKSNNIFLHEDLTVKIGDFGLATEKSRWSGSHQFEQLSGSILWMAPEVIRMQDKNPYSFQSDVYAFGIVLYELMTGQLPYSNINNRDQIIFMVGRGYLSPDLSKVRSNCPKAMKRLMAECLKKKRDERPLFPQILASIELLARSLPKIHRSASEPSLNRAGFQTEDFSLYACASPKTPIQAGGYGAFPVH
The experiment in a line: RAF biochemical assay (MEK-1 phosphorylation, anti-phospho MEK1/2 detection). The note with it: read-out: Mutant B-RAF IC50. The method in brief:
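Detection is by ELISA: after a 30 min room-temperature reaction, plate-captured GST-MEK-1 is probed with anti-phospho MEK1/2, then an AP-tagged secondary antibody with fluorescent Attophos read-out.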

For assay [7], the system named is human mammary epithelial cells (HMEC, normal). The experiment in a line: MTS cell growth assay, HMEC. It counts as cell-based. The note with it: 72 hours.
Text: as §1, §2, §3

The subject of assay [8] is NCM460 normal colon epithelial cell line. The experiment in a line: MTS cell growth assay, NCM460. It counts as cell-based. The following applies: Homo sapiens, NCM460 normal cells, 72 hours.
Text: as §1, §2, §3

SMILES strings stand for the structures.

Regarding `COc1ccccc1-c1nc2sccn2c1-c1ccnc(N[C@@H]2CCCN(S(=O)(=O)c3ccc(Cl)cc3)C2)n1` [Example 105, N-{(3R)-1-[(4-chlorophenyl)sulfonyl]piperidin-3-yl}-4-[6-(2-methoxyphenyl)imidazo[2,1-b][1,3]thiazol-5-yl]pyrimidin-2-amine], the half-maximal inhibitory concentration (IC50) in [1] is 380 nM; in assay [2], 1100 nM; in assay [3], 4730 nM; in assay [4] it was 480 nM; in assay [5], 1280 nM; in assay [6], 310 nM. The figures for the IC50 (on mutant B-RAF; in assay [7]; in assay [8]) were 250 nM, 2720 nM and 6680 nM, respectively.

Consider `COc1cccc(-c2nc3sccn3c2-c2ccnc(N[C@@H]3CCCN(C(=O)c4ccncc4)C3)n2)c1` [Example 112, N-[(3R)-1-isonicotinoylpiper-idin-3-yl]-4-[6-(3-methoxyphenyl)imidazo[2,1-b][1,3]thiazol-5-yl]pyrimidin-2-amine], for which the IC50 worked out at 330 nM in [1]; 910 nM in assay [2]; 3330 nM in assay [3]; 860 nM in assay [4]; 2740 nM in assay [5]; 270 nM in assay [6]. Also, the values for the IC50 (at mutant B-RAF; in assay [7]; in assay [8]) were above 5000 nM, 2240 nM and 4710 nM, respectively.

On to `O=S(=O)(c1ccc(Cl)cc1)N1CCC(Nc2nccc(-c3c(-c4cccc(O)c4)nc4sccn34)n2)CC1` [Example 267, 3-{5-[2-({1-[(4-chlorophenyl)sulfonyl]piperidin-4-yl}amino)pyrimidin-4-yl]imidazo[2,1-b][1,3]thiazol-6-yl}phenol], for which the IC50 was 190 nM in [1]; 870 nM in assay [2]; 1760 nM in assay [3]; 380 nM in assay [4]; 2130 nM in assay [5]; 270 nM in assay [6]. The IC50 on mutant B-RAF came out at 31 nM; in assay [7], 1070 nM; in assay [8], 2050 nM.

As for `CCNC(=O)N1CCC(Nc2nccc(-c3c(-c4cccc(O)c4)nc4sccn34)n2)CC1` [Example 268, N-ethyl-4-({4-[6-(3-hydroxyphenyl)imidazo[2,1-b][1,3]thiazol-5-yl]pyrimidin-2-yl}amino)piperidine-1-carboxamide], the IC50 worked out at 360 nM in assay [1]; 1330 nM in assay [2]; 4030 nM in assay [3]; 800 nM in assay [4]; 4400 nM in assay [5]; 370 nM in assay [6]. The IC50 on mutant B-RAF turned out to be 9 nM; in assay [7], 720 nM; in assay [8], 2540 nM.

Regarding `O=C(c1ccc(F)cc1)N1CCC(Nc2nccc(-c3c(-c4ccc(F)cc4)nc4sccn34)n2)CC1` [Example 289, N-[1-(4-fluorobenzoyl)piperidin-4-yl]-4-[6-(4-fluorophenyl)imidazo[2,1-b][1,3]thiazol-5-yl]pyrimidin-2-amine], the IC50 in [1] is 180 nM; in assay [2] it was 990 nM; in assay [3] it was 3080 nM; in assay [4], 670 nM; in assay [5], 2970 nM; in assay [6], 150 nM. The IC50 is above 10000 nM on mutant B-RAF, 1240 nM in [7] and 4170 nM in assay [8].
